Consider 20 compounds from patent publication US12509444B2, “Compounds and methods for CD73 modulation and indications therefor” (Plexxikon Inc., priority 2019, dated 2025).

For experiment [1], the target named is T1, Human CD73 (amino acid residues 27-549) (Homo sapiens, UniProt P21589).
T1 construct: Human CD73 (amino acid residues 27-549); His tag (N); made in house; host or cells: E. coli
T1 sequence (P21589 27-549): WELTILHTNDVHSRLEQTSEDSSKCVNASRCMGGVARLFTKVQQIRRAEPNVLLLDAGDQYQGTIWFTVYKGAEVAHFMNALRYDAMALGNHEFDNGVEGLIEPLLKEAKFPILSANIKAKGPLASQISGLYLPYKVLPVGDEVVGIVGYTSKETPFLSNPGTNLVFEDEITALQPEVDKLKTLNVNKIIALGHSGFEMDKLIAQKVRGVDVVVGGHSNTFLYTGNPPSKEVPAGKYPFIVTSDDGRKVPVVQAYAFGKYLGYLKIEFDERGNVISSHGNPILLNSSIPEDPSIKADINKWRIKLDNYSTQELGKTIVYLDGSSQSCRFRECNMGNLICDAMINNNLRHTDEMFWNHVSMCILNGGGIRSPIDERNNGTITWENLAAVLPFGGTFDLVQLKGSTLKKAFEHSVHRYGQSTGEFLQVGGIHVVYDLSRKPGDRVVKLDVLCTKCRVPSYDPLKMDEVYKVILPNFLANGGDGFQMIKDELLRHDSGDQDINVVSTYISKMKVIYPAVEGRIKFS
The experiment in a line: CD73 enzymatic assay (luciferase-based indirect assay, CellTiter-Glo). The format is biochemical. The settings on record: 0.4 nM CD73, 150 μM AMP, 1 hour at room temperature. Summed up:
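Residual AMP inhibits luciferase, so luminescence reports CD73 turnover; read with CellTiter-Glo 2.0 plus 1 μM final ATP, 30 min. Reaction used 0.4 nM N-His CD73 (27-549, E. coli), 150 μM AMP, HEPES pH 7.4 with Tween 20, 1 h at room temperature. IC50 fitted by nonlinear regression.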
Background: ATP-based viability assays read luminescence as a measure of living cells.

In another experiment the target is T2, human CD73 (Homo sapiens, UniProt P21589).
T2 construct: expressed in transfected cells
T2 sequence (P21589 27-549): T1 sequence (P21589 27-549)
The experiment is described as follows: Inhibitor activity against CD73 in cell based assay (CD73 expressing CHO-K1 cells). The settings on record: CHO-K1 cells expressing human CD73, 150 μM AMP, 4 hours of incubation; read-out: CHO-K1 CELL VARIANT: CD73 IC50. In outline: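 Residual supernatant AMP was quantified via CellTiter-Glo luminescence (1 μM ATP added, 30 min, room temperature) after a 4 h exposure of human CD73-expressing CHO-K1 cells to 150 μM AMP plus compound, top final 10 μM, 8 points. IC50 came from nonlinear regression of percent inhibition.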

For orientation: IC50 means the midpoint of a concentration-inhibition curve.

For the compound `O=C(N[C@H]1CC[C@H](NC(=O)c2cccnc2)CC1)O[C@@H]1CCN(c2cn[nH]c(=O)c2Cl)C1` [P-0256, (R)-1-(5-chloro-6-oxo-1,6-dihydropyridazin-4-yl)pyrrolidin-3-yl ((1r,4R)-4-(nicotinamido)cyclohexyl) carbamate], the half-inhibitory concentration (IC50) (in experiment [1]; at human CD73) was 0.001 to 10 µM in each case.

`O=C(N[C@H]1CC[C@H](NC(=O)C2CC2)CC1)O[C@@H]1CCN(c2cn[nH]c(=O)c2Cl)C1` [P-0257, (R)-1-(5-chloro-6-oxo-1,6-dihydropyridazin-4-yl)pyrrolidin-3-yl ((1r,4R)-4-(cyclopropanecarboxamido)cyclohexyl)carbamate]: the IC50 (in experiment [1]; on human CD73) was 0.001 to 10 µM each time.

For the compound `O=C(N[C@H]1CC[C@H](NC(=O)C2CCC2)CC1)O[C@@H]1CCN(c2cn[nH]c(=O)c2Cl)C1` [P-0258, (R)-1-(5-chloro-6-oxo-1,6-dihydropyridazin-4-yl)pyrrolidin-3-yl ((1r,4R)-4-(cyclobutanecarboxamido)cyclohexyl)carbamate], the IC50 (in experiment [1]; on human CD73) was 0.001 to 10 µM throughout.

On to `O=C(N[C@H]1CC[C@H](NC(=O)C2CCCC2)CC1)O[C@@H]1CCN(c2cn[nH]c(=O)c2Cl)C1` [P-0259, (R)-1-(5-chloro-6-oxo-1,6-dihydropyridazin-4-yl)pyrrolidin-3-yl ((1r,4R)-4-(cyclopentanecarboxamido)cyclohexyl)carbamate], for which the half-maximal inhibitory concentration (IC50) (in experiment [1]; at human CD73) was 0.001 to 10 µM each time.

For the compound `O=C(N[C@H]1CC[C@H](NC(=O)c2ccccn2)CC1)O[C@@H]1CCN(c2cn[nH]c(=O)c2Cl)C1` [P-0260, (R)-1-(5-chloro-6-oxo-1,6-dihydropyridazin-4-yl)pyrrolidin-3-yl ((1r,4R)-4-(picolinamido)cyclohexyl) carbamate], the IC50 (in experiment [1]; at human CD73) was 0.001 to 10 µM in each case.

For `N#Cc1ccc(C(=O)N[C@H]2CC[C@H](NC(=O)O[C@@H]3CCN(c4cn[nH]c(=O)c4Cl)C3)CC2)cc1` [P-0261, (R)-1-(5-chloro-6-oxo-1,6-dihydropyridazin-4-yl)pyrrolidin-3-yl ((1r,4R)-4-(4-cyanobenzamido)cyclohexyl) carbamate], the 50% inhibitory concentration (IC50) (in experiment [1]; on human CD73) was 0.001 to 10 µM throughout.

For `CC(C)(C)C(=O)N[C@H]1CC[C@H](NC(=O)O[C@@H]2CCN(c3cn[nH]c(=O)c3Cl)C2)CC1` [P-0262, (R)-1-(5-chloro-6-oxo-1,6-dihydropyridazin-4-yl)pyrrolidin-3-yl ((1r,4R)-4-pivalamidocyclohexyl) carbamate], the IC50 (in experiment [1]; on human CD73) was 0.001 to 10 µM each time.

Regarding `CC(C)C(=O)N[C@H]1CC[C@H](NC(=O)O[C@@H]2CCN(c3cn[nH]c(=O)c3Cl)C2)CC1` [P-0263], the figures for the IC50 (in experiment [1]; at human CD73) were 0.001 to 10 µM and 10 to 100 µM, respectively.

In the case of `O=C(N[C@H]1CC[C@H](NC(=O)c2ccncc2)CC1)O[C@@H]1CCN(c2cn[nH]c(=O)c2Cl)C1` [P-0264, (R)-1-(5-chloro-6-oxo-1,6-dihydropyridazin-4-yl)pyrrolidin-3-yl ((1r,4R)-4-(isonicotinamido)cyclohexyl) carbamate], the IC50 (in experiment [1]; at human CD73) was 0.001 to 10 µM each time.

Take `O=C(N[C@H]1CC[C@H](NC(=O)c2ccc(Cl)cc2)CC1)O[C@@H]1CCN(c2cn[nH]c(=O)c2Cl)C1` [P-0265, (R)-1-(5-chloro-6-oxo-1,6-dihydropyridazin-4-yl)pyrrolidin-3-yl ((1r,4R)-4-(4-chlorobenzamido)cyclohexyl) carbamate]: the IC50 (in experiment [1]; at human CD73) was 0.001 to 10 µM in each case.

Consider `O=C(N[C@H]1CC[C@H](NC(=O)c2ccccc2Cl)CC1)O[C@@H]1CCN(c2cn[nH]c(=O)c2Cl)C1` [P-0266, (R)-1-(5-chloro-6-oxo-1,6-dihydropyridazin-4-yl)pyrrolidin-3-yl ((1r,4R)-4-(2-chlorobenzamido)cyclohexyl) carbamate], for which the IC50 (in experiment [1]; at human CD73) was 0.001 to 10 µM each time.

Regarding `O=C(N[C@H]1CC[C@H](NC(=O)c2c(F)cccc2F)CC1)O[C@@H]1CCN(c2cn[nH]c(=O)c2Cl)C1` [P-0267, (R)-1-(5-chloro-6-oxo-1,6-dihydropyridazin-4-yl)pyrrolidin-3-yl ((1r,4R)-4-(2,6-difluorobenzamido)cyclohexyl) carbamate], the IC50 (in experiment [1]; on human CD73) was 0.001 to 10 µM throughout.

Take `Cc1cccc(F)c1C(=O)N[C@H]1CC[C@H](NC(=O)O[C@@H]2CCN(c3cn[nH]c(=O)c3Cl)C2)CC1` [P-0268, (R)-1-(5-chloro-6-oxo-1,6-dihydropyridazin-4-yl)pyrrolidin-3-yl ((1r,4R)-4-(2-fluoro-6-methylbenzamido)cyclohexyl) carbamate]: the IC50 (in experiment [1]; at human CD73) was 0.001 to 10 µM each time.

In the case of `CCN(CC)CC(=O)N[C@H]1CC[C@H](NC(=O)O[C@@H]2CCN(c3cn[nH]c(=O)c3Cl)C2)CC1` [P-0269, (R)-1-(5-chloro-6-oxo-1,6-dihydropyridazin-4-yl)pyrrolidin-3-yl ((1r,4R)-4-(2-(diethylamino)acetamido)cyclohexyl)carbamate], the IC50 (in experiment [1]; at human CD73) was 0.001 to 10 µM each time.

For `O=C(CN1CCOCC1)N[C@H]1CC[C@H](NC(=O)O[C@@H]2CCN(c3cn[nH]c(=O)c3Cl)C2)CC1` [P-0270, (R)-1-(5-chloro-6-oxo-1,6-dihydropyridazin-4-yl)pyrrolidin-3-yl ((1r,4R)-4-(2-morpholinoacetamido)cyclohexyl)carbamate], the IC50 (in experiment [1]; on human CD73) was 0.001 to 10 µM each time.

`O=C(NC1CC1)N[C@H]1CC[C@H](NC(=O)O[C@@H]2CCN(c3cn[nH]c(=O)c3Cl)C2)CC1` [P-0271, (R)-1-(5-chloro-6-oxo-1,6-dihydropyridazin-4-yl)pyrrolidin-3-yl ((1r,4R)-4-(3-cyclopropylureido)cyclohexyl) carbamate]: the IC50 (in experiment [1]; on human CD73) was 0.001 to 10 µM in each case.

As to `O=C(Nc1ccc(Cl)cc1)N[C@H]1CC[C@H](NC(=O)O[C@@H]2CCN(c3cn[nH]c(=O)c3Cl)C2)CC1` [P-0272, (R)-1-(5-chloro-6-oxo-1,6-dihydropyridazin-4-yl)pyrrolidin-3-yl ((1r,4R)-4-(3-(4-chlorophenyl)ureido)cyclohexyl)carbamate], the IC50 (in experiment [1]; at human CD73) was 0.001 to 10 µM throughout.

`C[C@]1(O)CC[C@@H](NC(=O)O[C@@H]2CCN(c3cn[nH]c(=O)c3Cl)C2)CC1` [P-0273, (R)-1-(5-chloro-6-oxo-1,6-dihydropyridazin-4-yl)pyrrolidin-3-yl ((1s,4S)-4-hydroxy-4-methylcyclohexyl)carbamate]: the IC50 (in experiment [1]; at human CD73) was 0.001 to 10 µM throughout.

`O=C(N[C@H]1CC[C@@H](O)CC1)O[C@@H]1CCN(c2cn[nH]c(=O)c2Cl)C1` [P-0274, (R)-1-(5-chloro-6-oxo-1,6-dihydropyridazin-4-yl)pyrrolidin-3-yl ((1s,4S)-4-hydroxycyclohexyl)carbamate]: the IC50 (in experiment [1]; at human CD73) was 0.001 to 10 µM throughout.

In the case of `N#C[C@H]1CC[C@H](NC(=O)O[C@@H]2CCN(c3cn[nH]c(=O)c3Cl)C2)CC1` [P-0275, (R)-1-(5-chloro-6-oxo-1,6-dihydropyridazin-4-yl)pyrrolidin-3-yl ((1r,4R)-4-cyanocyclohexyl)carbamate], the IC50 (in experiment [1]; on human CD73) was 0.001 to 10 µM each time.
